From US9155784B2, “Anti-TNF-α therapy for the mucopolysaccharidoses and other lysosomal disorders” (Icahn School of Medicine at Mount Sinai, priority 2011, dated 2015) come the findings set out here.

The subject of assay [1] is MPS VI rats. Kind of assay: MicroCT of dentition in PPS treated MPS VI rats. The assay is classed as in vivo, rat. The note with it: PPS 25 mg/day, start at 6 months of age, 3 months. On the procedure:
FIGS. 8A-8F show microCT images of normal rats (FIGS. 8A, 8B) MPS VI rats with PPS treatment (FIGS. 8E, 8F) and without PPS treatment (FIGS. 8C, 8D) showing dentition changes. MPS VI rats were maintained on normal watering or with water containing 25 mg/day PPS (n=6/group). Animals were 6 months of age when treatment was begun, and treatment was carried out for 3 months. Untreated MPS VI rats have overgrown incisors (box) that leads to abnormal alignment of the teeth compared to normal rats. The mandible and misalignment were corrected by PPS treatment.
Untreated MPS VI rats have overgrown incisors (box) (FIGS. 8C, 8D) that leads to abnormal alignment of the teeth compared to normal rats. The mandible and misalignment were corrected by PPS treatment (FIGS. 8E, 8F).

In assay [2] the test system is Niemann-Pick disease mice (acid sphingomyelinase knock-out). Kind of assay: Rotarod analysis of Niemann-Pick disease mice treated with PPS. The class given is in vivo, mouse. The note with it: 25 mg/kg/day for three months from one month of age; 20 RPM; p<0.01; remained below wild-type. The protocol:
One-month-old Niemann-Pick disease mice (acid sphingomyelinase knock-out) were treated with PPS for three months beginning at one month of age (25 mg/kg/day). They were then analyzed using an accelerating rotarod apparatus set to 20 RPM.

The test system of assay [3] is MPS VI rats. The assay is described as follows: Accelerating rotarod of PPS treated MPS VI rats. The class given is in vivo, rat. On the procedure: FIG. 9 depicts rotarod analysis of MPS VI rats with and without PPS. Six-month-old MPS VI rats were maintained with or without PPS for 3 months (n=6/group), and prior to sacrifice were analyzed using an accelerating rotarod apparatus. Gray=MPS VI rats on normal water; Blue=MPS VI rats receiving PPS.
FIGS. 12A-12C show results of treatment of MPS VI rats at one month of age. In FIGS. 12A and 12B, one-month old MPS VI rats were maintained for eight months on normal water or with water containing 25 mg/day PPS (n=6/group). Representative images are shown. Arrows indicate ocular porphyrin secretions, wide broad skull and snout and small ears in the untreated, with marked improvement in the treated animal. In FIG. 12C, animals were tested on an accelerating rotarod apparatus. […] In addition, only normal and treated rats were able to remain on the rotating rod at speeds up to 35 RPM (60% of normal).
(§1) Immediately prior to sacrifice, the animals also were studied using an accelerating rotarod apparatus. […] It was hypothesized that this reflects either increased joint mobility and/or reduced inflammation and pain in the treatment group. […] Serum levels of inflammatory marker MIP-1α is shown in FIG. 11A, while levels of marker Rantes is show in FIG. 11B and levels of TNF-α are shown in FIG. 11C.

The next assay concerns TNF-α. Kind of assay: Immunohistochemical analysis of TNF-α in liver and spleen of PPS treated MPS VI rats. The assay is classed as in vivo, rat. As to conditions: PPS start at 6 months, 9-month-old animals, vs untreated.
Source text: (§2) FIGS. 10A-10B illustrate immunohistochemical analysis of PPS treated and untreated rats.
as §1

Assay [4] has as its system MPS VI rats. Kind of assay: Spine disease: disc height index from sagittal radiographs, PPS treated MPS VI rats. The class given is in vivo, rat. As to conditions: PPS treatment of skeletally mature animals (6 months of age). On the procedure: FIGS. 14A-14C show an assessment of spine disease in the treated (6 month old) and untreated MPS VI rats.
Lastly, spine disease in the treated (6 month old) and untreated MPS VI rats was assessed. These studies have documented several important and clinically relevant endpoints that can be followed during PPS treatment. Histologically, MPS VI discs had abundant, enlarged vacuolated nuclear and annular cells as well as thickened annulus layers, focal defects in the nucleus pulposus, and increased disc height as compared to control discs (FIG. 14A). […] ADAMTS-5 is a proteoglycan-degrading aggrecanase that also is elevated in untreated MPS VI rat chondrocytes, but was reduced in the MPS VI treatment groups (FIG. 15).

Another assay has as its system articular chondrocytes. The assay is described as follows: Western blotting of articular chondrocytes from PPS treated MPS VI rats. As to conditions: western blot, PPS groups 1-3, sacrificed at 9 months. The assay is classed as in vivo, rat. On the procedure:
Groups 1, 2 and 3 animals were treated with PPS beginning at 6 months, 1 month and prenatally. They were sacrificed at 9 months and articular chondrocytes were isolated and grown for 3 weeks. They were then analyzed by western blotting. […] ADAMTS-5 is a proteeoglycan-degrading aggrecanase that also is elevated in untreated MPS VI rat chondrocytes, and was reduced in the MPS VI treatment groups.

Assay [5] concerns MPS VI rats. The assay is described as follows: Tracheas of MPS VI rats treated with PPS. The assay is classed as in vivo, rat. The note with it: all PPS treatment groups (start 6 months, 1 month, prenatally), sacrificed at 9 months. The protocol: FIG. 13 illustrates tracheas of MPS VI rats treated with PPS. Groups 1, 2 and 3 animals were treated with PPS beginning at 6 months, 1 month, and prenatally. They were sacrificed at 9 months and the tracheas were isolated.

The test system of a further assay is MIP-1α, Rantes, TNF-α. Kind of assay: Serum inflammatory markers by ELISA in PPS treated MPS VI rats. The assay is classed as in vivo, rat. On the procedure:
as §2
FIGS. 11A-11C show serum inflammatory markers in treated and untreated MPS VI rats. Three groups of MPS VI rats were treated with PPS beginning at six months (light gray), one month (dark gray) or prenatally (black). All animals were sacrificed at 9 months of age. The duration of treatment was therefore 3 months, 8 months or 9.75 months, respectively. The serum levels of several inflammatory markers were measured by ELISA assays, and compared to normal (hatched) or untreated MPS VI animals (white). N=6/group. Serum levels of inflammatory marker MIP-1α is shown in FIG. 11A, while levels of marker Rantes is shown in FIG. 11B and levels of TNF-α are shown in FIG. 11C.
as §1

The test system of assay [6] is MPS VI rats. The assay is described as follows: Skull and snout appearance, radiographs and microCT in PPS treated MPS VI rats. The assay is classed as in vivo, rat. The protocol: FIGS. 6A-6D show results of MPS VI rats treated with PPS. MPS VI rats were maintained on normal watering (FIG. 6A) or with water containing 25 mg/day PPS (n=6/group) (FIG. 6B). Animals were 6 months of age when treatment began, and treatment was carried out for 3 months. Skull and snout images were taken at the end of treatment. Representative images are shown. Skull length and width measurements also were determined from the radiographs for each of the animals, and the data are shown in the bar graph (FIGS. 6C, 6D). White=normal 9 month old, Gray=MPS VI rats on normal water; Blue=MPS VI rats receiving PPS. *=p<0.01.
FIGS. 7A-7F show skull radiographs (FIGS. 7A, 7B, 7C) and microCT images (FIGS. 7D, 7E, 7F) of normal rats (FIGS. 7A, 7D), MPS VI rats with PPS treatment (FIGS. 7C, 7F), and MPS VI rats without PPS treatment (FIGS. 7B, 7E). MPS VI rats were maintained on normal watering or with water containing 25 mg/day PPS (n=6/group). Animals were 6 months of age when treatment was begun, and treatment was carried out for 3 months. The top images show radiographs (FIGS. 7A, 7B, 7C), and the bottom images microCT images (FIGS. 7D, 7E, 7F). Longer snouts and thinner skulls were found in the MPS VI rats treated with PPS compared to untreated MPS VI. The lines in the radiographs are for reference. The quantitative data shown in FIGS. 6A-6D on skull length and width were measured from these radiographs.
In order to develop “proof-of-principle” data, six MPS VI rats at 6 months of age were treated with PPS for 3 months. 6-month-old MPS VI rats have established bone, cartilage, and inflammatory disease, and the specific goal in this initial study was therefore to evaluate whether PPS could either slow or reverse any of the clinical or pathological findings in MPS animals with advanced disease. […] As illustrated by FIGS. 7A-7F skull radiographs and microCT images were taken of normal rats (FIGS. 7A, 7D), MPS VI rats with PPS treatment (FIGS. 7C, 7F), and MPS VI rats without PPS treatment (FIGS. 7B, 7E). […] The images shown are representative of the general observations on these animals.

Where [7] appears, read: all treatment groups (start 6 months, 1 month or prenatally), sacrificed at 9 months, vs untreated.
Setting [8] is: PPS 25 mg/day in water, start at 6 months of age, 3 months, vs untreated MPS VI.

Regarding Pentosan polysulfate [PPS], in the assay on MPS VI rats [1], the “mandible and misalignment of the teeth” value is “corrected”. In addition, in [2], the “rotarod performance versus untreated NPD mice” value is “significantly better”. In addition, the “time on the rotating rod versus untreated” value in the assay with MPS VI rats [3] (PPS start at 1 month of age, 8 months, 20 RPM) is “more than twice as long”. In addition, in the assay on MPS VI rats [3] (PPS start at 1 month of age, 8 months, untreated unable to remain), the “rotarod performance at speeds up to 35 RPM” value is 60 % of normal. Besides, the “time on the rotating rod versus untreated” value in the assay with MPS VI rats [3] (PPS start at 6 months of age, 3 months, p<0.02) is “more than twice as long”. Also, in the assay with TNF-α, the “TNF-α expression in liver and spleen” value is “decreased”. Besides, in the assay on MPS VI rats [4], the “disc height index (DHI)” value is reported as “did not influence”. For the same substance, in the assay on articular chondrocytes, the “ADAMTS-5 in articular chondrocytes” value is on record as “reduced”, the “Cox-2 in articular chondrocytes” value is recorded as “reduced to normal”, the “TNF-α in articular chondrocytes” value is on record as “reduced to normal” and the “p38 in articular chondrocytes” value is recorded as “reduced to normal”. Besides, the collapsed tracheas entry in the assay on MPS VI rats [5] was “improved”. Further, the “serum TNF levels” value in the assay with MIP-1α, Rantes, TNF-α (PPS start at 6 months, 9-month-old animals, vs untreated (FIG. 10B)) is “decreased”. Further, in the assay on MIP-1α, Rantes, TNF-α (setting [7]), the “serum MIP-1α level” value was “significantly (<0.001) lower”, the “serum Rantes level” value is “significantly (<0.001) lower” and the “serum TNF-α level” value is reported as “significantly (<0.001) lower”. In the assay with MPS VI rats [6] (setting [8]), the skull length entry is “significantly longer”, the skull width result was “thinner” and the snout length result is given as “significantly longer”. For the same substance, the “facial appearance, skull length, eye and nasal secretions, and motility” value with MPS VI rats [6] (PPS start at 1 month of age, 8 months) is on record as “significant effect”. In the assay with MPS VI rats [6] (PPS start at 6 months of age, 3 months, vs untreated MPS VI), the ocular porphyrin secretions entry is listed as “markedly fewer”.
